{
  "source": "patent US20090227533A1",
  "about": "“miR-34 Regulated Genes and Pathways as Targets for Therapeutic Intervention” (priority 2007, published 2009)",
  "key": {"SCLC and NSCLC cells": {"system": "SCLC and NSCLC cells", "details": "various lung cancer cells (Tsai et al., 1993; Ohsaki et al., 1992); cited from earlier work"}, "H522 cells": {"system": "H522 cells", "assay": "Alamar Blue proliferation assay, lung cancer cells", "format": "cell-based, human", "details": "normalized to NC (100%)", "text": "(§1) The inventors assessed the therapeutic effect of hsa-miR-34a for lung cancer by using eight individual lung cancer cell lines. To measure cellular proliferation of lung cancer cells, the following non-small cell lung cancer (NSCLC) cells were used: cells derived from lung adenocarcinoma (A549, H522, Calu-3, HCC2935), cells derived from lung squamous cell carcinoma (H226), cell derived from lung adenosquamous cell carcinoma (H596), cells derived from lung bronchioalveolar carcinoma (H1650), and cells derived from lung large cell carcinoma (H460). Synthetic hsa-miR-34a (Pre-miR™-hsa-miR-34a, Ambion cat. no. AM17100) or negative control (NC) miRNA (Pre-miR™ microRNA Precursor Molecule-Negative Control #2; Ambion cat. no. AM17111) was delivered via lipid-based transfection into A549, H522, H596, Calu-3, HCC2935, H1650, H460 cells and via electroporation into H226 cells.\n(§2) Lipid-based reverse transfections were carried out in triplicate according to a published protocol (Ovcharenko et al., 2005) and the following parameters: cells (5,000-12,000 per 96 well), 0.1-0.2 μl Lipofectamine™ 2000 (cat. no. 11668-019, Invitrogen Corp., Carlsbad, Calif., USA) in 20 μl OptiMEM (Invitrogen), 30 nM final concentration of miRNA in 100 μl. Electroporation of H226 cells was carried out using the BioRad Gene Pulser Xcell™ instrument (BioRad Laboratories Inc., Hercules, Calif., USA) with the following settings: 5×10^6 cells with 5 μg miRNA in 200 μl OptiMEM (1.6 μM miRNA), square wave pulse at 250 V for 5 ms. Electroporated H226 cells were seeded at 7,000 cells per 96-well in a total volume of 100 μl. All cells except for Calu-3 cells were harvested 72 hours post transfection or electroporation for assessment of cellular proliferation. Calu-3 cells were harvested 10 days post transfection. Proliferation assays were performed using Alamar Blue (Invitrogen) following the manufacturer's instructions. As a control for inhibition of cellular proliferation, siRNA against the motor protein kinesin 11, also known as Eg5, was used. Eg5 is essential for cellular survival of most eukaryotic cells and a lack thereof leads to reduced cell proliferation and cell death (Weil et al., 2002). siEg5 was used in lipid-based transfection following the same experimental parameters that apply to miRNA. The inventors also used a DNA topoisomerase II inhibitor, etoposide, at a final concentration of 10 μM and 50 μM as an internal standard for the potency of miRNAs. Etoposide is an FDA-approved DNA topoisomerase II inhibitor in the treatment of lung cancer. […] Percent (%) proliferation values from the Alamar Blue assay were normalized to values from cells treated with negative control miRNA. Percent proliferation of hsa-miR-34a treated cells relative to cells treated with negative control miRNA (100%) is shown in Table 7 and in FIG. 1."}, "Calu-3 cells": {"system": "Calu-3 cells", "assay": "Alamar Blue proliferation assay, lung cancer cells", "format": "cell-based, human", "details": "Calu-3, normalized to NC (100%)", "text": "as §1, §2"}, "A549 cells": {"system": "A549 cells", "assay": "Alamar Blue proliferation assay, lung cancer cells", "format": "cell-based, human", "details": "normalized to NC (100%)", "text": "as §1, §2"}, "H460 cells": {"system": "H460 cells", "assay": "Alamar Blue proliferation assay, lung cancer cells", "format": "cell-based, human", "details": "normalized to NC (100%)", "text": "as §1, §2"}, "H596 cells": {"system": "H596 cells", "assay": "Alamar Blue proliferation assay, lung cancer cells", "format": "cell-based, human", "details": "normalized to NC (100%)", "text": "as §1, §2"}, "H1650 cells": {"system": "H1650 cells", "assay": "Alamar Blue proliferation assay, lung cancer cells", "format": "cell-based, human", "details": "normalized to NC (100%)", "text": "as §1, §2"}, "H460 lung cancer cells": {"system": "H460 lung cancer cells", "assay": "Alamar Blue proliferation assay with pair-wise miRNA combinations", "format": "cell-based, human", "details": "normalized to 600 pM negative control miRNA", "text": "miRNAs function in multiple pathways controlling multiple cellular processes. Cancer cells frequently show aberrations in several different pathways, which determine their oncogenic properties. […] The inventors assessed the efficacy of pair-wise miRNA combinations, administering hsa-miR-34a concurrently with either hsa-miR-124a, hsa-miR-126, hsa-miR-147, hsa-let-7b, hsa-let-7c or hsa-let-7g (Pre-miR™ miRNA, Ambion cat. no. AM17100). H460 lung cancer cells were transiently reverse-transfected in triplicate with each miRNA at a final concentration of 300 pM, resulting in 600 pM of total oligonucleotide. For negative controls, 600 pM of Pre-miR™ microRNA Precursor Molecule-Negative Control #2 (Ambion cat. no. AM17111) were used. To correlate the effect of various combinations with the effect of the sole miRNA, each miRNA at 300 pM was also combined with 300 pM negative control miRNA. Reverse transfection was carried out using the following parameters: 7,000 cells per 96 well, 0.15 μl Lipofectamine™ 2000 (Invitrogen) in 20 μl OptiMEM (Invitrogen), 100 μl total transfection volume. […] Cells were harvested 72 hours after transfection and subjected to Alamar Blue assays (Invitrogen). Percent proliferation values from the Alamar Blue assays were normalized to those obtained from cells treated with 600 pM negative control miRNA. Data are expressed as % proliferation relative to negative control miRNA-treated cells (Table 8, FIG. 3).\nAdditive activity of pair-wise combinations (e.g., hsa-miR-34a plus hsa-miR-147) is defined as an activity that is greater than the sole activity of each miRNA (e.g., the activity of hsa-miR-34a plus hsa-miR-147 is greater than that observed for hsa-miR-34a plus NC and the activity of hsa-miR-34a plus hsa-miR-147 is greater than that observed for hsa-miR-147 plus NC). Synergistic activity of pair-wise combinations is defined as an activity that is greater than the sum of the sole activity of each miRNA (e.g., the activity of hsa-miR-34a plus hsa-let-7g is greater than that observed for the sum of the activity of hsa-miR-34a plus NC and the activity of hsa-let-7g plus NC). […] The combinatorial use of miRNAs represents a potentially useful therapy for cancer and other diseases."}, "H226 cells": {"system": "H226 cells", "assay": "Alamar Blue proliferation assay, lung cancer cells (electroporation)", "format": "cell-based, human", "details": "normalized to NC (100%)", "text": "as §1\nLipid-based reverse transfections were carried out in triplicate according to a published protocol (Ovcharenko et al., 2005) and the following parameters: cells (5,000-12,000 per 96 well), 0.1-0.2 μl Lipofectamine™ 2000 (cat. no. 11668-019, Invitrogen Corp., Carlsbad, Calif., USA) in 20 μl OptiMEM (Invitrogen), 30 nM final concentration of miRNA in 100 μl. Electroporation of H226 cells was carried out using the BioRad Gene Pulser Xcell™ instrument (BioRad Laboratories Inc., Hercules, Calif., USA) with the following settings: 5×10^6 cells with 5 μg miRNA in 200 μl OptiMEM (1.6 μM miRNA), square wave pulse at 250 V for 5 ms. Electroporated H226 cells were seeded at 7,000 cells per 96-well in a total volume of 100 μl. All cells except for Calu-3 cells were harvested 72 hours post transfection or electroporation for assessment of cellular proliferation. Calu-3 cells were harvested 10 days post transfection. Proliferation assays were performed using Alamar Blue (Invitrogen) following the manufacturer's instructions. As a control for inhibition of cellular proliferation, siRNA against the motor protein kinesin 11, also known as Eg5, was used. […]"}},
  "data": [
    {"smiles": "COc1cc([C@@H]2c3cc4c(cc3[C@@H](O[C@@H]3O[C@@H]5CO[C@@H](C)O[C@H]5[C@H](O)[C@H]3O)[C@H]3COC(=O)[C@H]23)OCO4)cc(OC)c1O", "note": "[Etoposide, etoposide]", "values": [
      {"measurement": "IC50", "setting": "SCLC and NSCLC cells", "value": "1 to 25", "unit": "µM"},
      {"measurement": "% proliferation", "setting": "H522 cells; etoposide 10 μM", "value": 82.13, "unit": "%"},
      {"measurement": "% proliferation", "setting": "H522 cells; etoposide 50 μM", "value": 61.08, "unit": "%"},
      {"measurement": "% proliferation", "setting": "Calu-3 cells; etoposide 10 μM", "value": 20.81, "unit": "%"},
      {"measurement": "% proliferation", "setting": "Calu-3 cells; etoposide 50 μM", "value": 13.53, "unit": "%"},
      {"measurement": "% proliferation", "setting": "A549 cells; etoposide 10 μM", "value": 49.13, "unit": "%"},
      {"measurement": "% proliferation", "setting": "A549 cells; etoposide 50 μM", "value": 42.18, "unit": "%"},
      {"measurement": "% proliferation", "setting": "H460 cells; etoposide 10 μM", "value": 32.13, "unit": "%"},
      {"measurement": "% proliferation", "setting": "H460 cells; etoposide 50 μM", "value": 27.82, "unit": "%"},
      {"measurement": "% proliferation", "setting": "H596 cells; etoposide 10 μM", "value": 88.75, "unit": "%"},
      {"measurement": "% proliferation", "setting": "H596 cells; etoposide 50 μM", "value": 73.39, "unit": "%"},
      {"measurement": "% proliferation", "setting": "H1650 cells; etoposide 10 μM", "value": 90.98, "unit": "%"},
      {"measurement": "% proliferation", "setting": "H1650 cells; etoposide 50 μM", "value": 60.31, "unit": "%"},
      {"measurement": "% proliferation", "setting": "H460 lung cancer cells; etoposide 10 μM", "value": 20.19, "unit": "%"},
      {"measurement": "% proliferation", "setting": "H460 lung cancer cells; etoposide 50 μM", "value": 14.94, "unit": "%"},
      {"measurement": "% proliferation", "setting": "H226 cells; etoposide 10 μM", "value": 28.17, "unit": "%"},
      {"measurement": "% proliferation", "setting": "H226 cells; etoposide 50 μM", "value": 9.33, "unit": "%"}
    ]}
  ]
}
